# Target: HIV-1 protease (Human immunodeficiency virus type 1 group M subtype B, UniProt P04585)
# Experiment: Inhibition constants against HIV-1 protease (method of Pennington et al.)
# Type: biochemical
# Settings: HIV-1 protease; read-out: Ki value
# Excerpt: We measured the inhibition constants of the compounds listed in Table VII against HIV-1 protease using the above-cited method of Pennington et al.
row,Compound,Ki [nM]
1,"CCOC(=O)N[C@@H](Cc1ccccc1)[C@H](O)CN(CC1CCCC1)S(=O)(=O)c1ccc(F)cc1 [Compound 115, N-Cyclopentylmethyl-N-((3-ethoxycarbonylamino)-(2 syn,3S)-2-hydroxy-4-phenyl-butyl)-4-fluoro-benzenesulfonamide]",0.5
2,"O=C(N[C@@H](Cc1ccccc1)[C@H](O)CN(CC1CCCC1)S(=O)(=O)c1ccc(Cl)cc1)O[C@H]1CCOC1 [Compound 116, 4-Chloro-N-cyclopentylmethyl-N-((2 syn,3S)-2-hydroxy-4-phenyl-3-((S)-tetrahydrofuran-3-yloxycarbonylamino)-butyl)-benzenesulfonamide]",< 0.1
3,C=CCOC(=O)N[C@@H](Cc1ccccc1)[C@H](O)CN(CC1CCCC1)S(=O)(=O)c1ccc(Cl)cc1 [Compound 117],0.26
4,O=C(N[C@@H](Cc1ccccc1)[C@H](O)CN(CC1CCCC1)S(=O)(=O)c1ccc(Cl)cc1)OCc1cccnc1 [Compound 118],< 0.1
5,CCOC(=O)N[C@@H](Cc1ccccc1)[C@H](O)CN(CC(C)C)S(=O)(=O)c1ccc(Cl)c(Cl)c1 [Compound 119],1.8
6,CCOC(=O)N[C@@H](Cc1ccccc1)[C@H](O)CN(CC(C)C)S(=O)(=O)c1ccc(NC(C)=O)cc1 [Compound 120],11
7,CCOC(=O)N[C@@H](Cc1ccccc1)[C@H](O)CN(CC(C)C)S(=O)(=O)c1ccc(F)cc1 [Compound 121],2
8,C=CCOC(=O)N[C@@H](Cc1ccccc1)[C@H](O)CN(CC(C)C)S(=O)(=O)c1ccc(F)cc1 [Compound 122],1.2
9,COc1ccc(S(=O)(=O)N(CC(C)C)C[C@@H](O)[C@H](Cc2ccccc2)NC(=O)O[C@H]2CCOC2)cc1OC [Compound 123],10
10,CC(C)CN(C[C@@H](O)[C@H](Cc1ccccc1)NC(=O)O[C@H]1CCOC1)S(=O)(=O)c1ccc(F)c(F)c1 [Compound 124],1.1
11,"CC(=O)Nc1ccc(S(=O)(=O)N(CC2CCCC2)C[C@@H](O)[C@H](Cc2ccccc2)NC(=O)O[C@H]2CCOC2)cc1 [Compound 125, N-(4-(Cyclopentylmethyl-((2 syn,3S)-2-hydroxy-4-phenyl-3-((S)-tetrahydrofuran-3-yloxycarbonylamino)-butyl)-sulfamoyl)-phenyl)-acetamide]",0.3
12,CN(C[C@@H](O)[C@H](Cc1ccccc1)NC(=O)OC(C)(C)C)S(=O)(=O)c1ccc(Cl)c(Cl)c1 [Compound 126],310
13,CN(C[C@@H](O)[C@H](Cc1ccccc1)NC(=O)OC(C)(C)C)S(=O)(=O)c1ccc(F)cc1 [Compound 127],650
14,CC(=O)Nc1ccc(S(=O)(=O)N(C)C[C@@H](O)[C@H](Cc2ccccc2)NC(=O)OC(C)(C)C)cc1 [Compound 128],> 5000
15,CC(C)(C)OC(=O)NC(Cc1ccccc1)C(O)CN(CC1CCCO1)S(=O)(=O)c1ccc(F)cc1 (stereo not shown) [Compound 129],19
16,C=C(C)CN(C[C@@H](O)[C@H](Cc1ccccc1)NC(=O)OC(C)(C)C)S(=O)(=O)c1ccc(F)cc1 [Compound 130],14
17,C=C(C)CN(C[C@@H](O)[C@H](Cc1ccccc1)NC(=O)OC(C)(C)C)S(=O)(=O)c1ccc(NC(C)=O)cc1 [Compound 131],60
18,O=C(NC(Cc1ccccc1)C(O)CN(CC1CCCO1)S(=O)(=O)c1ccc(F)cc1)OC1CCOC1 (stereo not shown) [Compound 132],6
19,CC(=O)Nc1ccc(S(=O)(=O)N(CC2CCCO2)CC(O)C(Cc2ccccc2)NC(=O)OC2CCOC2)cc1 (stereo not shown) [Compound 133],24
20,C=C(C)CN(C[C@@H](O)[C@H](Cc1ccccc1)NC(=O)O[C@H]1CCOC1)S(=O)(=O)c1ccc(NC(C)=O)cc1 [Compound 134],8.4
21,C=C(C)CN(C[C@@H](O)[C@H](Cc1ccccc1)NC(=O)O[C@H]1CCOC1)S(=O)(=O)c1ccc(F)cc1 [Compound 135],2.7
22,O=C(N[C@@H](Cc1ccccc1)[C@H](O)CN(Cc1ccco1)S(=O)(=O)c1ccc(F)cc1)O[C@H]1CCOC1 [Compound 136],18

row,Compound,Ki [nM]
1,CC(=O)Nc1ccc(S(=O)(=O)N(Cc2ccco2)C[C@@H](O)[C@H](Cc2ccccc2)NC(=O)O[C@H]2CCOC2)cc1 [Compound 137],26
2,"CC(C)CN(C[C@@H](O)[C@H](Cc1ccccc1)NC(=O)O[C@H]1CCOC1)S(=O)(=O)c1cccc(Cl)c1 [Compound 138, 3-Chloro-N-((2 syn,3S)-2-hydroxy-4-phenyl-3-((S)-tetrahydrofuran-3-yloxycarbonylamino)-butyl)-N-isobutyl-benzenesulfonamide]",1.4
3,"O=C1N[C@H](COC(=O)N[C@@H](Cc2ccccc2)[C@H](O)CN(CC2CCCC2)S(=O)(=O)c2ccc(Cl)cc2)CO1 [Compound 139, 4-Chloro-N-cyclopentylmethyl-N-(2-(syn)-hydroxy-3-((2-oxazolidon-4-(S)-yl-methyl)-oxycarbonylamino)-4-phenyl-butyl)-benzenesulfonamide]",1.2
4,"COc1ccc(S(=O)(=O)N(CC2CCCC2)C[C@@H](O)[C@H](Cc2ccccc2)NC(=O)O[C@H]2CCOC2)cc1 [Compound 140, N-cyclopentylmethyl-N-((2 syn,3S)-2-hydroxy-4-phenyl-3-((S)-tetrahydrofuran-3-yloxycarbonylamino)-butyl)-4-methoxy-benzenesulfonamide]",< 0.1
5,"C=CCOC(=O)N[C@@H](Cc1ccccc1)[C@H](O)CN(CC1CCCC1)S(=O)(=O)c1ccc(OC)cc1 [Compound 141, N-((3-allyloxycarbonylamino)-(2 syn,3S)-2-hydroxy-4-phenyl-butyl)-N-cyclopentylmethyl-4-methoxy-benzenesulfonamide]",0.1
6,COc1ccc(S(=O)(=O)N(CC2CCCC2)C[C@@H](O)[C@H](Cc2ccccc2)NC(=O)OCc2cccnc2)cc1 [Compound 142],< 0.1
7,"CC(C)CN(C[C@@H](O)[C@H](Cc1ccccc1)NC(=O)O[C@H]1CCOC1)S(=O)(=O)c1ccc(-c2ccon2)s1 [Compound 145, 5-Isoxazol-3-yl-thiophene-2-sulfonic acid ((2 syn,3S)-2-hydroxy-4-phenyl-3-((S)-tetrahydrofuran-3-yloxycarbonylamino)-butyl)-isobutyl-amide]",1.4
8,"C=CCOC(=O)N[C@@H](Cc1ccccc1)[C@H](O)CN(CC1CCCC1)S(=O)(=O)c1ccc(NC(C)=O)cc1 [Compound 146, N-(4-((3-(Allyloxycarbonylamino)-(2 syn,3S)-2-hydroxy-4-phenyl-butyl)-cyclopentylmethylsulfamoyl)-phenyl)-acetamide]",2
9,"CC(=O)Nc1ccc(S(=O)(=O)N(CC2CCCC2)C[C@@H](O)[C@H](Cc2ccccc2)NC(=O)OCc2cccnc2)cc1 [Compound 147, N-(4-(Cyclopentylmethyl-((2 syn,3S)-2-hydroxy-4-phenyl-3-(pyridin-3-yl-methoxycarbonylamino)-butyl)-sulfamoyl)-phenyl)-acetamide]",1.6
10,"O=C(N[C@@H](Cc1ccccc1)[C@H](O)CN(CC1CCCC1)S(=O)(=O)c1ccccc1)O[C@H]1CCOC1 [Compound 148, N-Cyclopentylmethyl-N-((2 syn,3S)-2-hydroxy-4-phenyl-3-((S)-tetrahydrofuran-3-yloxycarbonylamino)-butyl)-benzenesulfonamide]",0.2
11,"O=C(N[C@@H](Cc1ccccc1)[C@H](O)CN(CC1CCCC1)S(=O)(=O)c1cccnc1)O[C@H]1CCOC1 [Compound 149, Pyridine-3-sulfonic acid cyclopentylmethyl-((2 syn,3S)-2-hydroxy-4-phenyl-3-((S)-tetrahydrofuran-3-yloxycarbonylamino)-butyl)-amide]",1.7
12,"CC(C)CN(C[C@@H](O)[C@H](Cc1ccccc1)NC(=O)O[C@H]1CCOC1)S(=O)(=O)N1CCCCC1 [Compound 150, Piperidine-1-sulfonic acid ((2 syn,3S)-2-hydroxy-4-phenyl-3-((S)-tetrahydrofuran-3-yloxycarbonylamino)-butyl)-isobutyl-amide]",6
13,O=C(N[C@@H](Cc1ccccc1)[C@H](O)CN(CC1CCCC1)S(=O)(=O)c1ccc(OC(F)(F)F)cc1)O[C@H]1CCOC1 [Compound 151],0.8
14,CC(C)CN(C[C@@H](O)[C@H](Cc1ccccc1)NC(=O)O[C@H]1CCOC1)S(=O)(=O)c1ccc(OC(F)(F)F)cc1 [Compound 152],2.5
15,COc1ccc(S(=O)(=O)N(CC(C)C)C[C@@H](O)[C@H](Cc2ccccc2)NC(=O)OCc2cccnc2)cc1 [Compound 153],0.2
16,C=CCOC(=O)N[C@@H](Cc1ccccc1)[C@H](O)CN(CC(C)C)S(=O)(=O)c1ccc(OC)cc1 [Compound 154],0.5
17,"C=C(COC)COC(=O)N[C@@H](Cc1ccccc1)[C@H](O)CN(CC(C)C)S(=O)(=O)c1ccc(NC(C)=O)cc1 [Compound 155, N-4-((2-(syn)-Hydroxy-3-((2-methoxymethyl-allyloxycarbonylamino)-4-(S)-phenyl-butyl)-isobutyl-sulfamoyl)-phenyl)-acetamide]",1.7
18,C=CCOC(=O)N[C@@H](Cc1ccccc1)[C@H](O)CN(CC1CCCC1)S(=O)(=O)c1ccc2c(c1)CCN2C(C)=O [Compound 156],2.8
19,"COc1ccc(S(=O)(=O)N(CC2CCCCC2)C[C@@H](O)[C@H](Cc2ccccc2)NC(=O)O[C@H]2CCOC2)cc1 [Compound 158, N-Cyclohexylmethyl-N-((2 syn,3S)-2-hydroxy-4-phenyl-3-((S)-tetrahydrofuran-3-yloxycarbonylamino)-butyl)-4-methoxy-benzenesulfonamide]",< 0.1
20,"O=C(N[C@@H](Cc1ccccc1)[C@H](O)CN(CC1CCCCC1)S(=O)(=O)c1ccc(F)cc1)O[C@H]1CCOC1 [Compound 159, N-Cyclohexylmethyl-4-fluoro-N-((2 syn,3S)-2-hydroxy-4-phenyl-3-((S)-tetrahydrofuran-3-yloxycarbonylamino)-butyl)-benzenesulfonamide]",0.2
21,"CC(=O)Nc1ccc(S(=O)(=O)N(CC2CCCCC2)C[C@@H](O)[C@H](Cc2ccccc2)NC(=O)O[C@H]2CCOC2)cc1 [Compound 160, N-(4-(Cyclohexylmethyl)-((2 syn,3S)-2-hydroxy-4-phenyl-3-((S)-tetrahydrofuran-3-yloxycarbonylamino)-butyl)-sulfamoyl-phenyl)-acetamide]",1

# From US20080293727A1, “Novel sulfonamide inhibitors of aspartyl protease” (priority 1992, published 2008)
